The values below come from patent publication US8507493B2 (AbbVie Inc., priority 2009, dated 2013).

pKi: −log10 of the molar value.

T1 sequence (P28845 24-287): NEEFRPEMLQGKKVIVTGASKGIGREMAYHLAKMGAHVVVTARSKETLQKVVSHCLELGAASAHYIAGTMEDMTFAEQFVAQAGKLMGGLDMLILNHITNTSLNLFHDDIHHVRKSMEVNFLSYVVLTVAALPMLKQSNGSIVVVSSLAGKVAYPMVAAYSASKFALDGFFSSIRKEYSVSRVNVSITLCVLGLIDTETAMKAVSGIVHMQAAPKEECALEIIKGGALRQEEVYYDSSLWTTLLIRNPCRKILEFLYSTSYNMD

The first test has as its target T1, human 11β-HSD1 (Homo sapiens, UniProt P28845).
T1 construct: truncated (24-287aa) human 11β-HSD1 enzyme; made in house; host or cells: E. coli (lysate, not purified)
Put plainly: Human 11β-HSD1 enzymatic SPA assay. It counts as biochemical. The following applies: truncated (24-287aa) human 11β-HSD1, apparent Ki from IC50 by Cheng-Prusoff. The procedure:
The ability of test compounds to inhibit human 11β-HSD1 enzymatic activity in vitro was evaluated in a Scintillation Proximity Assay (SPA). Tritiated-cortisone substrate, NADPH cofactor and titrated compound were incubated with truncated (24-287aa) human 11β-HSD1 enzyme at room temperature to allow the conversion to cortisol to occur. The reaction was stopped by adding a non-specific 11β-HSD inhibitor, glycyrrhetinic acid. The tritiated cortisol was captured by a mixture of an anti-cortisol monoclonal antibody and SPA beads coated with anti-mouse antibodies. The reaction plate was shaken at room temperature and the radiolabel bound to SPA beads was then measured on a scintillation counter. The 11β-HSD1 assay was carried out in 96-well microtiter plates in a total volume of […]. To start the assay, 188 μL of master mix which contained 75 nM ^3H-cortisone, 100 nM cortisone and 181 μM NADPH was added to the wells. In order to drive the reaction in the 11β-reductase direction, 1 mM glucose-6-phosphate (G-6-P) and 1 U/mL G-6-P dehydrogenase were also added as a NADPH generating system. Solid compound was dissolved in dimethyl sulfoxide to make a 10 mM stock followed by a subsequent 10-fold serial dilution with dimethyl sulfoxide. Each compound solution in dimethyl sulfoxide was 10-fold diluted in Tris/EDTA buffer (pH 7.4). 22 μL of titrated compound were then added in duplicate to the substrate. Reactions were initiated by the addition of 10 μL of 0.1 mg/mL E. coli lysates overexpressing 11β-HSD1 enzyme. After shaking and incubating plates for 30 minutes at room temperature, reactions were stopped by adding 10 μL of 1 mM glycyrrhetinic acid. The product, tritiated cortisol, was captured by adding 10 μL of 1 μM monoclonal mouse anti-cortisol antibodies and 50 μL of SPA beads coated with anti-mouse antibodies. After shaking for 30 minutes, plates were read in a Microbeta scintillation counter. Percent inhibition was calculated based on the background and the maximal signal. Wells that contained substrate without compound or enzyme were used as the background, while the wells that contained substrate and enzyme without any compound were considered as maximal signal. Percent of inhibition of each compound was calculated relative to the maximal signal and IC50 curves were generated. Assuming competitive inhibition the Cheng-Prusoff equation was used to calculate apparent Ki values from the IC50 values. This assay was applied to 11β-HSD2 as well, whereby 6 nM tritiated cortisol and 250 uM NAD^+ were used as substrate and cofactor, respectively.
In the case of `CC(C)(Oc1ccc(F)cc1F)C(=NC#N)NC1C2CC3CC1CC(C(N)=O)(C3)C2` (centres unmarked) [Example 70, (E)-4-{[(1E)-N-cyano-2-(2,4-difluorophenoxy)-2-methylpropanimidoyl]amino}adamantane-1-carboxamide], the pKi is ≥ 8.00.
The same measure, in the same setting: with `CC(C)(Oc1ccc(Cl)cc1F)/C(=N\C#N)NC1CN2CCC1CC2` (centres unmarked) [Example 72, (1E)-N-(1-azabicyclo[2.2.2]oct-3-yl)-2-(4-chloro-2-fluorophenoxy)-N′-cyano-2-methylpropanimidamide] the figure was < 6.00; with `CC(C)(Oc1ccc(Cl)cc1F)C(=NC#N)NC12CC3CC(CC1C3)C2` [Example 73, 2-(4-chloro-2-fluorophenoxy)-Y-cyano-N-(hexahydro-2,5-methanopentalen-3a(1H)-yl)-2-methylpropanimidamide], 6.00 to 7.00; with `CC(C)(Oc1ccc(Cl)cc1F)/C(=N\C#N)NC1C2CC3CC1CC(C(N)=O)(C3)C2` (centres unmarked) [Example 74, (E)-4-{[(1E)-2-(4-chloro-2-fluorophenoxy)-N-cyano-2-methylpropanimidoyl]amino}adamantane-1-carboxamide], ≥ 8.00.
On the same count and under the same terms, with `CC(C)(Oc1ccc(Cl)cn1)C(=NC#N)NC1C2CC3CC1CC(C(N)=O)(C3)C2` (centres unmarked) [Example 75, (E)-4-({(1E)-2-[(5-chloropyridin-2-yl)oxy]-N-cyano-2-methylpropanimidoyl}amino)adamantane-1-carboxamide] the figure was 7.00 to 8.00; with `[H]/N=C(/NC1C2CC3CC1CC(C(N)=O)(C3)C2)C(C)(C)Oc1ccccc1` (centres unmarked) [Example 76, (E)-4-[(2-methyl-2-phenoxypropanimidoyl)amino]adamantane-1-carboxamide], < 6.00; with `CC(C)(Oc1ccccn1)/C(=N\C#N)NC1C2CC3CC1CC(S(C)(=O)=O)(C3)C2` (centres unmarked) [Example 77, (1E)-N′-cyano-2-methyl-N-[(E)-5-(methylsulfonyl)adamantan-2-yl]-2-(pyridin-2-yloxy)propanimidamide], 6.00 to 7.00.
On the same count and under the same terms, under `CC(C)(Oc1ccccc1F)/C(=N\C#N)NC1C2CC3CC1CC(C#N)(C3)C2` (centres unmarked) [Example 78, (1E)-N′-cyano-N-[(E)-5-cyanoadamantan-2-yl]-2-(2-fluorophenoxy)-2-methylpropanimidamide] stands 7.00 to 8.00; under `CC(C)(Oc1ccccc1F)C(=NC#N)NC1C2CC3CC1CC(S(N)(=O)=O)(C3)C2` (centres unmarked) [Example 79, (1E)-N′-cyano-2-(2-fluorophenoxy)-2-methyl-N-[(E)-5-sulfamoyladamantan-2-yl]propanimidamide], 7.00 to 8.00.
With `CC(C)(Oc1ccccc1F)C(=NC#N)NC1C2CC3CC1CC(O)(C3)C2` (centres unmarked) [Example 80, (1E)-N′-cyano-2-(2-fluorophenoxy)-N-[(E)-5-hydroxyadamantan-2-yl]-2-methylpropanimidamide], the pKi was ≥ 8.00.
Take `CC(C)(Oc1ccccc1)C(=NC#N)NC12CCC(C(N)=O)(CC1)C2` [Example 81, 4-{[N-cyano-2-methyl-2-phenoxypropanimidoyl]amino}bicyclo[2.2.1]heptane-1-carboxamide]: the negative logarithm of the Ki (pKi) was < 6.00.
Still for that read-out and setting: under `CC(C)(Oc1ccccc1)C(=NC#N)NC12CCC(C(N)=O)(CC1)CC2` [Example 82, 4-{[N-cyano-2-methyl-2-phenoxypropanimidoyl]amino}bicyclo[2.2.2]octane-1-carboxamide] stands 7.00 to 8.00; under `CC(C)(Oc1ccccc1)C(=NC#N)NC12CCC(C#N)(CC1)C2` [Example 83, N′-cyano-N-(4-cyanobicyclo[2.2.1]hept-1-yl)-2-methyl-2-phenoxypropanimidamide], 6.00 to 7.00; under `CC(C)(Oc1ccccc1)C(=NC#N)NC12CCC(C#N)(CC1)CC2` [Example 84, N′-cyano-N-(4-cyanobicyclo[2.2.2]oct-1-yl)-2-methyl-2-phenoxypropanimidamide], 6.00 to 7.00.
The same measure, in the same setting: under `CC(C)(Oc1ccc(Cl)cc1)C(=NC#N)NC12CCC(C(F)F)(CC1)CC2` [Example 85, 2-(4-chlorophenoxy)-N′-cyano-N-[4-(difluoromethyl)bicyclo[2.2.2]oct-1-yl]-2-methylpropanimidamide] stands 6.00 to 7.00.
Still for that read-out and setting: under `CC(C)(Oc1ccccc1)C(=NC#N)NC12CCC(C(F)F)(CC1)CC2` [Example 86, N-cyano-N-[4-(difluoromethyl)bicyclo[2.2.2]oct-1-yl]-2-methyl-2-phenoxypropanimidamide] stands 7.00 to 8.00; under `CC(C)(Oc1ccccc1)C(=NC#N)NC12CCC(C(=O)O)(CC1)CC2` [Example 87, 4-{[N-cyano-2-methyl-2-phenoxypropanimidoyl]amino}bicyclo[2.2.2]octane-1-carboxylic acid], < 6.00; under `CC(C)(Oc1ccc(Cl)cc1)C(=NC#N)NC12CCC(C(N)=O)(CC1)C2` [Example 88, 4-{[2-(4-chlorophenoxy)-N-cyano-2-methylpropanimidoyl]amino}bicyclo[2.2.1]heptane-1-carboxamide], 6.00 to 7.00.
For `CC(C)(Oc1ccccc1)C(=NC#N)NC12CCC(C(F)F)(CC1)C2` [Example 89, N′-cyano-N-[4-(difluoromethyl)bicyclo[2.2.1]hept-1-yl]-2-methyl-2-phenoxypropanimidamide], the negative logarithm of the Ki (pKi) was 7.00 to 8.00.
On to `COc1ccc(Cl)cc1C(=NC#N)N[C@@H]1[C@@H]2C[C@@H]3C[C@H]1C[C@@](O)(C3)C2` [Example 93, 5-chloro-N′-cyano-N-[(E)-5-hydroxyadamantan-2-yl]-2-methoxybenzenecarboximidamide], for which the negative-log Ki (pKi) was < 6.00.
The same measure, in the same setting: with “(1E)-N-(adamantan-1-yl)-N-cyano-2-(2,4-difluorophenoxy)-2-methylpropanimidamide [Example 71]” the figure was 7.00 to 8.00.

The test system of a further test is patients.
Test: not given
The conditions noted are these: treatment for 4 days; cited from earlier work.
Regarding `CC1(C)[C@@H](OC(=O)CCC(=O)O)CC[C@]2(C)[C@H]3C(=O)C=C4[C@@H]5C[C@@](C)(C(=O)O)CC[C@]5(C)CC[C@@]4(C)[C@]3(C)CC[C@@H]12` [carbenoxolone], the lowered intraocular pressure is given as 10%.

The same test, now with this note: treatment for 7 days; cited from earlier work.
`CC1(C)[C@@H](OC(=O)CCC(=O)O)CC[C@]2(C)[C@H]3C(=O)C=C4[C@@H]5C[C@@](C)(C(=O)O)CC[C@]5(C)CC[C@@]4(C)[C@]3(C)CC[C@@H]12` [carbenoxolone]: the lowered intraocular pressure was 17%.
